For data set [1] the following is noted: Liquid; for mass density: 293.15 K, 101.33 kPa, Vibrating tube method; for Normal boiling temperature: Ebulliometric method (Recirculating still).
The nature of data set [2]: refractive index (Na D-line) (dimensionless). The settings on record: 293.15 K; 101.33 kPa; Liquid; Standard Abbe refractometry.

Numbers after ± are expanded uncertainties.

With `CC#N` [acetonitrile], in data set [1], the mass density came out at 782.1 ± 1 kg/m3 and the Normal boiling temperature came out at 81.44 ± 0.3 °C. For the same compound, in data set [2], the refractive index is reported as 1.3439 ± 0.0004.
The like results for `CO` [methanol] were, in that order, 791.1 ± 1 kg/m3, 64.41 ± 0.3 °C and 1.3283 ± 0.0004.

A word on the mass density: it is mass per unit of volume. The term refractive index denotes a measure of how strongly the sample bends light.

The values above are taken from the NIST ThermoML archive (doi:10.1016/j.jct.2016.05.011).
